Data: publication PMC6025407, “Asperversins A and B, Two Novel Meroterpenoids with an Unusual 5/6/6/6 Ring from the Marine-Derived Fungus Aspergillus versicolor” (Marine Drugs, 2018)
Values after ≈ are worked out from the molar mass of the structure shown. Where two headings read alike, the source gives them in different places.

Columns and labels:
Cytotoxic assay (MTT) = conditions: human
Procedure: (§1) Four human cancer cell lines (A549, MCF-7, HepG2, and HL-60 cells), together with one noncancerous cell line, the human bronchial epithelial cells Beas-2B, were used in the cytotoxic activity assay. All cells were cultured in DMEM or RPMI- 1640 medium (HyClone, Logan, UT, USA), supplemented with 10% fetal bovine serum (HyClone) at 37 °C in a humidified atmosphere with 5% CO 2 . The cell survival assay was performed using the MTT method. Briefly, 100 μ L of a suspension of the adherent cells was seeded into each well of the 96 - well culture plates and allowed to adhere for 12 h before addition of the test compounds. The suspended cells were seeded at an initial density of 1 × 10^5 cells/mL immediately before the addition of the drug. Each tumor cell line was exposed for 48 h in triplicate to the test compounds at concentrations of 0.0625 , 0.32, 1.6, 8, and 40 μ M, with DDP (cis - platin, Sigma) and paclitaxel as positive controls. After incubation, culture supernatants were removed and exchanged with medium containing 0.5 mg/mL MTT. Then, the cells were incubated for 4 h at 37 °C in darkness , followed by the removal of the medium and adding 100 μ L dimethyl sulfoxide. The absorbance at 570 nm was detected and the data were expressed as the mean percentage of absorbance in treated vs. control cells.

human recombinant AChE = human recombinant AChE (Homo sapiens, UniProt P22303); assay: biochemical; conditions: for inhibition at 100 µM: AChE, read-out: Inhibitory Ratio at 100 μM; for IC50: read-out: IC50 Value against AChE
Procedure: Briefly, 20 µL AChE (0.05 U/mL) and 20 µL different concentrations of compounds (0.1 M phosphate buffer, pH 8.0) containing 0.1% Triton X-100) were pre-incubated at 37 °C for 30 min, then 160 µL of the assay solution which consisted of a 0.1 M phosphate buffer pH 8.0, with the addition of 600 µM 5,5’-dithio-bis (2-nitrobenzoic acid) and 550 µM acetylthiocholine iodide (ATCh) were added in the 96-well plates. The absorbance value at 425 nm was recorded for 15 min and enzyme activity was calculated from the slope of the obtained linear trend. The reaction rates were compared and the % inhibition due to the presence of tested inhibitors was calculated. Each concentration was analyzed in triplicate, and IC50 values were determined graphically from log concentration inhibition curves (Graphpad Prism 5, GraphPad Software Inc., San Diego, CA, USA).

[1] = Cytotoxic assay (MTT), noncancerous cell line; conditions: human, Beas-2B bronchial epithelial cells (noncancerous)
Procedure: as §1

Pseudomonas aeruginosa = assay: Antimicrobial (printed 'antifungal') bioassay; type: cell-based
Procedure: (§2) The tested pathogenic fungi, Staphylococcus aureus (MRSA), methicillin-sensitive Staphylococcus aureus (MSSA), Escherichia coli and Pseudomonas aeruginosa, were provided by Tongji Hospital of Tongji Medical College of Huazhong University of Science and Technology. All samples dissolved in MeOH were tested for antifungal activity in vitro by mycelial growth inhibitory rate method, a Poison Food Technique.
(§3) Potato dextrose agar (PDA) medium was used as the medium for all test fungi.
(§4) The media (100 ml) incorporating test samples were inoculated at the center of agar discs of the test fungi (4 mm diameter). Three replicate plates for each fungus were incubated at 26 °C for all test fungi. Control plates containing media mixed with MeOH (1 ml) were in cluded. After incubation for 24–48 h, the mycelial growth of fungi (mm) in both treated (T) and control (C) Petri dishes was measured diametrically in three different directions (decussation method) until the fungal growth in the control dishes was almost complete. The percentage of growth inhibition ( I) was calculated using the […]
(§5) Table S2. Antifungal Effects of Compounds 1−8 (MIC, μg/ml). fungi MRSA MSSA E. coli P. aeruginosa

Escherichia coli = assay: Antimicrobial (printed 'antifungal') bioassay; type: cell-based
Procedure: as §2, §3, §4, §5

[2] = system: methicillin-sensitive Staphylococcus aureus (MSSA); assay: Antimicrobial (printed 'antifungal') bioassay; type: cell-based
Procedure: as §2, §3, §4, §5

[3] = system: methicillin-resistant Staphylococcus aureus (MRSA); assay: Antimicrobial (printed 'antifungal') bioassay; type: cell-based
Procedure: as §2, §3, §4, §5

in vitro = conditions: human, A549 cells
Procedure: Four human cancer cell lines (A549, MCF-7, HepG2, and HL-60 cells), together with one noncancerous cell line, the human bronchial epithelial cells Beas-2B, were used in the cytotoxic activity assay. […]
medium (HyClone, Logan, UT, USA), supplemented with 10% fetal bovine serum (HyClone) at 37 °C in a humidified atmosphere with 5% CO 2 . The cell survival assay was performed using the MTT method. Briefly, 100 μ L of a suspension of the adherent cells was seeded into each well of the 96 - well culture plates and allowed to adhere for 12 h before addition of the test compounds. The suspended cells were seeded at an initial density of 1 × 10^5 cells/mL immediately before the addition of the drug. Each tumor cell line was exposed for 48 h in triplicate to the test compounds at concentrations […]
positive controls. After incubation, culture supernatants were removed and exchanged with medium containing 0.5 mg/mL MTT. Then, the cells were incubated for 4 h at 37 °C in darkness , followed by the removal of the medium and adding 100 μ L dimethyl sulfoxide. The absorbance at 570 nm was detected and the data were expressed as the mean percentage of absorbance in treated vs. control cells.

[4] = system: methicillin-resistant Staphylococcus aureus (MRSA); conditions: cited from earlier work

Sequence of human recombinant AChE (P22303 32-614): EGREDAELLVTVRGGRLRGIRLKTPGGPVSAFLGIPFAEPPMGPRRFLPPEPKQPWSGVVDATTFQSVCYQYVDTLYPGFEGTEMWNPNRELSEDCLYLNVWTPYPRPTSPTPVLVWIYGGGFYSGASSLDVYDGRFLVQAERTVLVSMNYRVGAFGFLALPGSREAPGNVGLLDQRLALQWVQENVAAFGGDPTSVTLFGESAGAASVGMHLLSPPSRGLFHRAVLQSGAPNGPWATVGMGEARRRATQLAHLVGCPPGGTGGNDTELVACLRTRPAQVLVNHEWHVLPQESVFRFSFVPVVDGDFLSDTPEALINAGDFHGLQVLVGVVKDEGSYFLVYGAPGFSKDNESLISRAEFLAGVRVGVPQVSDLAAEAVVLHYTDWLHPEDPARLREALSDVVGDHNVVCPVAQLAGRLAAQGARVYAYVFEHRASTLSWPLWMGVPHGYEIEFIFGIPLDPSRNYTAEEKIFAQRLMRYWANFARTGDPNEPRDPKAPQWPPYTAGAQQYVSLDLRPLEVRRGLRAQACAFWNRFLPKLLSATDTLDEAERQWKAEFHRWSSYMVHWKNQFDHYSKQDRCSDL

Row | Compound | IC50 at 48 h (Cytotoxic assay (MTT); HL-60 cells) [µM] | IC50 at 48 h (Cytotoxic assay (MTT); HepG2 cells) [µM] | IC50 at 48 h (Cytotoxic assay (MTT); MCF-7 cells) [µM] | inhibition at 100 µM (human recombinant AChE) [%] | IC50 (human recombinant AChE) [µM] | IC50 at 48 h [1] [µM] | MIC (Pseudomonas aeruginosa; P. aeruginosa, read-out: MIC) [µg/mL] | MIC (Escherichia coli; E. coli, read-out: MIC) [µg/mL] | MIC ([2]; read-out: MIC) [µg/mL] | MIC ([3]; read-out: MIC) [µg/mL] | IC50 at 48 h (in vitro) [µM] | MIC (Pseudomonas aeruginosa) [µg/mL] | MIC (Escherichia coli) [µg/mL] | MIC [2] [µg/mL] | MIC [3] [µg/mL] | activity against MRSA (in words) [4]
1 | COC(=O)C[C@@H]1OC(C)(C)[C@@H]2[C@H](OC(C)=O)C[C@@]3(C)Oc4cc(C)oc(=O)c4C[C@@H]3[C@@]12C [Compound 1, Asperversin A] | > 40 | > 40 | > 40 | 35.7 | > 40 | > 40 | > 100 | > 100 | > 100 | > 100 | > 40 |  |  |  |  | 
2 | CC(=O)O[C@@H]1C[C@@]2(C)Oc3cc(C)oc(=O)c3C[C@@H]2[C@@]2(C)[C@H](CC(=O)O)OC(C)(C)[C@H]12 [Compound 2, Asperversin B] | > 40 | > 40 | > 40 | 36.2 | > 40 | > 40 | > 100 | > 100 | > 100 | > 100 | > 40 |  |  |  |  | 
3 | C=C(C)[C@@H]1[C@H](OC(C)=O)C[C@@]2(C)Oc3cc(C)oc(=O)c3C[C@@H]2[C@@]1(C)[C@H](CC(=O)OC)OC(C)=O [Compound 3, Asperversin C] | > 40 | > 40 | > 40 | 27.6 | > 40 | > 40 | > 100 | > 100 | > 100 | > 100 | > 40 |  |  |  |  | 
4 | Cc1cc2c(c(=O)o1)C[C@@H]1[C@@]3(C)[C@@H](O)CC(=O)OC(C)(C)[C@@H]3CC[C@@]1(C)O2 [Compound 4, Asperversin D] | > 40 | > 40 | > 40 | 50.2 | > 40 | > 40 | > 100 | > 100 | > 100 | > 100 | > 40 |  |  |  |  | 
5 | CC(=O)OC1CC2(C)Oc3cc(C)oc(=O)c3CC2C2(C)C(O)CC(=O)OC(C)(C)C12 (stereo not drawn) [Compound 5, Asperversin E] | > 40 | > 40 | > 40 | 48.7 | > 40 | > 40 | > 100 | > 100 | > 100 | > 100 | > 40 |  |  |  |  | 
6 | CC(=O)O[C@H]1CC(=O)OC(C)(C)[C@@H]2[C@H](OC(C)=O)C[C@@]3(C)Oc4cc(C)oc(=O)c4C[C@@H]3[C@@]12C [Compound 6, Asperversin F] | > 40 | > 40 | > 40 | 62.9 | > 40 | > 40 | > 100 | > 100 | > 100 | > 100 | > 40 |  |  |  |  | 
7 | CC(=O)OC1CC2(C)Oc3cc(C)oc(=O)c3CC2C2(C)C=CC(=O)C(C)(C)C12 (stereo not drawn) [Compound 7, Asperversin G] | > 40 | > 40 | > 40 | 92.4 | 13.6 | > 40 | > 100 | > 100 | > 100 | > 100 | > 40 |  |  |  |  | 
8 | Cc1cc2c(c(=O)o1)C[C@@H]1[C@@]3(C)[C@@H](O)CC(=O)OC(C)(C)[C@@H]3[C@H](O)C[C@@]1(C)O2 [Compound 8, asperdemin] | > 40 | > 40 | > 40 | 25.3 | > 40 | > 40 | > 100 | > 100 | > 100 | > 100 | > 40 |  |  |  |  | 
9 | CN[C@H](CC(C)C)C(=O)N[C@H]1C(=O)N[C@@H](CC(N)=O)C(=O)N[C@H]2C(=O)N[C@H]3C(=O)N[C@H](C(=O)N[C@H](C(=O)O)c4cc(O)cc(O)c4-c4cc3ccc4O)[C@H](O)c3ccc(c(Cl)c3)Oc3cc2cc(c3O[C@@H]2O[C@H](CO)[C@@H](O)[C@H](O)[C@H]2O[C@H]2C[C@](C)(N)[C@H](O)[C@H](C)O2)Oc2ccc(cc2Cl)[C@H]1O [vancomycin, reference compound] |  |  |  |  |  |  |  |  |  |  |  | 0.8 (≈ 0.552 µM) | 0.5 (≈ 0.345 µM) | 0.5 (≈ 0.345 µM) | 1.2 (≈ 0.828 µM) | 
10 | Apiroaspertrione A |  |  |  |  |  |  |  |  |  |  |  |  |  |  |  | effective activity
